According to US8318807B2 (Laurus Labs Private Limited, priority 2010, dated 2012):

How the values were obtained:
[1] = Relative humidity stability over saturated salt solutions at ambient temperature, analysed by XRPD; type: physicochemical; conditions: for Dissociation by XRPD: 75, 94, or 98% RH after four weeks
Method: Relative humidity (RH) conditions were created at ambient temperatures using saturated salt solutions: NaCl ˜75%, KNO3 ˜94%, and K2SO4 ˜98%. Vials of each sample containing approximately 10 mg, were subjected to physical stability at ˜75% RH, ˜94% RH, and ˜98% RH for one day, three days, one week, and four weeks within a closed chamber. […] Upon completion of the duration allowed, the samples were immediately analyzed by XRPD.

[2] = Physical stability upon slurrying in water; type: physicochemical; conditions: for Behaviour upon slurrying in water: three days
Excerpt: […]. […] […]. […]

[3] = system: cancer cell lines; conditions: cancer cell lines in vitro; cited from earlier work
[4] = Method: Solubility and concentration measurements were performed using ultraviolet (UV) spectroscopy on a Spectramax Microplate Reader.
Appropriate dilutions with water were made as necessary to maintain absorbance readings within the standard curve. All experiments were repeated three times to evaluate the standard deviation, while particle size was not controlled for any of the experiments.

[5] = Attempted intrinsic dissolution in 900 mL water at ambient conditions; type: physicochemical; conditions: after 30 minutes
Method: Intrinsic dissolution in 900 mL water at ambient conditions was also attempted. […] Therefore, a concentration vs. time and intrinsic dissolution rate value were unobtainable at these conditions.

[6] = Powder dissolution of cocrystal 4 (attempted for cocrystal 3): slurry in water at ambient, UV at 315 nm; type: physicochemical
[7] = Physical stability at elevated temperature and/or relative humidity, analysed by XRPD; type: physicochemical
Method: Physical stability was evaluated at approximately 40° C., 60° C., 25° C./75% RH, 25° C./98% RH, and 40° C./75% RH and XRPD was used to detect dissociation or form conversion. Vials of each cocrystal were subjected to each condition for durations of two weeks, one month, and two months. Upon completion of the duration allowed, the samples were immediately analyzed by XRPD.

Cn1c(=O)c2c(ncn2C)n(C)c1=O [caffeine]
Results (XRPD) ([1]; 75% RH, 1 week): caffeine anhydrous | Results (XRPD) ([1]; 75% RH, 4 weeks): caffeine anhydrous | Results (XRPD) ([1]; 75% RH, 1 day): caffeine anhydrous | Results (XRPD) ([1]; 75% RH, 3 days): caffeine anhydrous | Conversion to hydrate ([1]; 75% RH, up to four weeks): does not display signs of conversion | Time of partial conversion to hydrate/dihydrate ([1]; 94% RH): between one and three days | Results (XRPD) ([1]; 94% RH, 1 week (7 days)): caffeine hydrate | Results (XRPD) ([1]; 94% RH, 4 weeks): caffeine hydrate | Results (XRPD) ([1]; 94% RH, 1 day): caffeine anhydrous | Results (XRPD) ([1]; 94% RH, 3 days): caffeine anhydrous/caffeine hydrate | Time of (full) conversion to hydrate/dihydrate ([1]; 98% RH): less than one day | Results (XRPD) ([1]; 98% RH, 1 week): caffeine hydrate | Results (XRPD) ([1]; 98% RH, 4 weeks): caffeine hydrate | Results (XRPD) ([1]; 98% RH, 1 day): caffeine hydrate | Results (XRPD) ([1]; 98% RH, 3 days): caffeine hydrate

COc1cc(/C=C/c2ccc(O)cc2)cc(OC)c1.Cn1c(=O)c2c(ncn2C)n(C)c1=O [cocrystal 1 (Form I), pterostilbene:caffeine]
Results (XRPD) ([1]; 75% RH, 1 week): cocrystal 1 (Form I), no caffeine hydrate | Results (XRPD) ([1]; 75% RH, 1 week, then additional stress at 98% RH, 1 week): cocrystal 1 (Form I), no caffeine hydrate | Results (XRPD) ([1]; 75% RH, 4 weeks): cocrystal 1 (Form I), no caffeine hydrate | Results (XRPD) ([1]; 75% RH, 1 day): cocrystal 1 (Form I), no caffeine hydrate | Results (XRPD) ([1]; 75% RH, 1 day, then additional stress at 98% RH, 1 day): cocrystal 1 (Form I), no caffeine hydrate | Results (XRPD) ([1]; 75% RH, 3 days): cocrystal 1 (Form I), no caffeine hydrate | Results (XRPD) ([1]; 94% RH, 1 week (7 days)): cocrystal 1 (Form I), no caffeine hydrate | Results (XRPD) ([1]; 94% RH, 4 weeks): cocrystal 1 (Form I), no caffeine hydrate | Results (XRPD) ([1]; 94% RH, 1 day): cocrystal 1 (Form I), no caffeine hydrate | Results (XRPD) ([1]; 94% RH, 3 days): cocrystal 1 (Form I), no caffeine hydrate | Results (XRPD) ([1]; 94% RH, 7 days, then additional stress at 98% RH, 4 weeks): cocrystal 1 (Form I), no caffeine hydrate | Results (XRPD) ([2]; Table 19, slurry, 2 days): cocrystal 1 (Form I), no caffeine hydrate | Behaviour upon slurrying in water [2]: precipitation of pterostilbene

COc1cc(/C=C/c2ccc(O)cc2)cc(OC)c1.Cn1c(=O)c2c(ncn2C)n(C)c1=O [cocrystal 1, pterostilbene:caffeine]
Dissociation by XRPD [1]: no dissociation

COc1cc(/C=C/c2ccc(O)cc2)cc(OC)c1 [pterostilbene, trans-3,5-dimethoxy-4′-hydroxystilbene]
Cytotoxic activity [3]: cytotoxic activity | Results (XRPD) ([1]; 75% RH, 4 weeks): pterostilbene (Form I) | Results (XRPD) ([1]; 94% RH, 4 weeks): pterostilbene (Form I) | Results (XRPD) ([1]; 98% RH, 4 weeks): pterostilbene (Form I)

pterostilbene:carbamazepine [cocrystal 2]
Results (XRPD) ([1]; 75% RH, 1 week): cocrystal 2, no carbamazepine dihydrate | Results (XRPD) ([1]; 75% RH, 4 weeks): cocrystal 2, no carbamazepine dihydrate | Results (XRPD) ([1]; 75% RH, 1 day): cocrystal 2, no carbamazepine dihydrate | Results (XRPD) ([1]; 75% RH, 3 days): cocrystal 2, no carbamazepine dihydrate | Results (XRPD) ([1]; 94% RH, 1 week (7 days)): cocrystal 2, no carbamazepine dihydrate | Results (XRPD) ([1]; 94% RH, 4 weeks): cocrystal 2, no carbamazepine dihydrate | Results (XRPD) ([1]; 94% RH, 1 day): cocrystal 2, no carbamazepine dihydrate | Results (XRPD) ([1]; 94% RH, 3 days): cocrystal 2, no carbamazepine dihydrate | Results (XRPD) ([1]; 98% RH, 1 week): cocrystal 2, no carbamazepine dihydrate | Results (XRPD) ([1]; 98% RH, 4 weeks): cocrystal 2, no carbamazepine dihydrate | Results (XRPD) ([1]; 98% RH, 1 day): cocrystal 2, no carbamazepine dihydrate | Results (XRPD) ([1]; 98% RH, 3 days): cocrystal 2, no carbamazepine dihydrate | Behaviour upon slurrying in water [2]: stable | Solubility (±standard deviation) [4]: 8.5 ± 0.7 µg/mL

pterostilbene:glutaric acid [cocrystal 3]
XRPD result in intrinsic dissolution [5]: crystalline pterostilbene | Dissociation by XRPD [1]: no dissociation | Solubility relative to pterostilbene ([6]; concluded from crystalline pterostilbene being the only product after slurrying in water): greater than the solubility of pterostilbene | XRPD result after slurrying in water ([6]; water at ambient, after 5 minutes): crystalline pterostilbene | Results (by XRPD) ([7]; 25° C./75% RH, 2 weeks): cocrystal 3 | Results (by XRPD) ([7]; 25° C./75% RH, 4 weeks): cocrystal 3 | Results (by XRPD) ([7]; 25° C./75% RH, 8 weeks): cocrystal 3 | Results (by XRPD) ([7]; 25° C./98% RH, 2 weeks): cocrystal 3 | Results (by XRPD) ([7]; 25° C./98% RH, 4 weeks): cocrystal 3 | Results (by XRPD) ([7]; 25° C./98% RH, 8 weeks): cocrystal 3 | Results (by XRPD) ([7]; 40° C., 2 weeks): cocrystal 3 | Results (by XRPD) ([7]; 40° C., 4 weeks): cocrystal 3 | Results (by XRPD) ([7]; 40° C., 8 weeks): cocrystal 3 | Results (by XRPD) ([7]; 40° C./75% RH, 2 weeks): cocrystal 3 | Results (by XRPD) ([7]; 40° C./75% RH, 4 weeks): cocrystal 3 | Results (by XRPD) ([7]; 40° C./75% RH, 8 weeks): cocrystal 3 | Results (by XRPD) ([7]; 60° C., 2 weeks): cocrystal 3 | Results (by XRPD) ([7]; 60° C., 4 weeks): cocrystal 3 | Results (by XRPD) ([7]; 60° C., 8 weeks): cocrystal 3
